From ChEMBL document CHEMBL4507298 (2021)

Columns and labels:
[1] = target: Kappa-type opioid receptor (Homo sapiens) (UniProt P41145); experiment: kappa (KOP) CEREP ligand profiling; conditions: Compound concentration 10.0 uM
[2] = target: Protein-tyrosine kinase 6 (Homo sapiens) (UniProt Q13882); conditions: Compound concentration 1000.0 nM
[3] = target: Prostaglandin G/H synthase 2 (Homo sapiens) (UniProt P35354); experiment: COX2 (h) CEREP ligand profiling; conditions: Compound concentration 10.0 uM
[4] = target: NUAK family SNF1-like kinase 1 (Homo sapiens) (UniProt O60285); conditions: Compound concentration 1000.0 nM
[5] = target: Serine/threonine-protein kinase ULK3 (Homo sapiens) (UniProt Q6PHR2); conditions: Compound concentration 1000.0 nM
[6] = target: Beta-1 adrenergic receptor (Homo sapiens) (UniProt P08588); experiment: beta 1 (h) CEREP ligand profiling; conditions: Compound concentration 10.0 uM
[7] = target: cGMP-dependent 3',5'-cyclic phosphodiesterase (Homo sapiens) (UniProt O00408); experiment: PDE2 (h) CEREP ligand profiling; conditions: Compound concentration 10.0 uM
[8] = tested on: Fibroblast growth factor receptor 3 (Homo sapiens), P22607 [G697C]; conditions: Compound concentration 1000.0 nM
[9] = target: G protein-coupled receptor kinase 3 (Homo sapiens) (UniProt P35626); conditions: Compound concentration 1000.0 nM
[10] = target: Receptor tyrosine-protein kinase erbB-3 (Homo sapiens) (UniProt P21860); conditions: Compound concentration 1000.0 nM
[11] = target: Dual specificity mitogen-activated protein kinase kinase 3 (Homo sapiens) (UniProt P46734); conditions: Compound concentration 1000.0 nM
[12] = target: Serine/threonine-protein kinase NLK (Homo sapiens) (UniProt Q9UBE8); conditions: Compound concentration 1000.0 nM
[13] = target: Ephrin type-A receptor 1 (Homo sapiens) (UniProt P21709); conditions: Compound concentration 1000.0 nM
[14] = target: T1, 5-hydroxytryptamine receptor 2C (Homo sapiens) (UniProt P28335); experiment: 5-HT2C (h) (agonist site) CEREP ligand profiling; conditions: Compound concentration 10.0 uM
T1 sequence (whole entry): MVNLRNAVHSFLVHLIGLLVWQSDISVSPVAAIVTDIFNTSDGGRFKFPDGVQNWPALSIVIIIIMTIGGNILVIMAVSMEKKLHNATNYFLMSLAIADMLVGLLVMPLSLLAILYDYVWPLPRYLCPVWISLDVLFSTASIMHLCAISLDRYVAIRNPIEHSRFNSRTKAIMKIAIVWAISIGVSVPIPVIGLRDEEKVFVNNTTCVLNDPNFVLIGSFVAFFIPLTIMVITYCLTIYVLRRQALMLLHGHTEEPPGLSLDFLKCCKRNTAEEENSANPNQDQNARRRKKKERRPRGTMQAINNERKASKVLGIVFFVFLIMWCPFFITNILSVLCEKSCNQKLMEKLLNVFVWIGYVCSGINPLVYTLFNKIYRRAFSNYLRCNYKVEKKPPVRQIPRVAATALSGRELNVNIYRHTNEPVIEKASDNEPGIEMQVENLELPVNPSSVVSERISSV

[15] = target: Myotonin-protein kinase (Homo sapiens) (UniProt Q09013); conditions: Compound concentration 1000.0 nM
[16] = target: Mitogen-activated protein kinase 8 (Homo sapiens) (UniProt P45983); conditions: Compound concentration 1000.0 nM
[17] = tested on: Tyrosine-protein kinase ABL1 (Homo sapiens), P00519 [M351T]; conditions: Compound concentration 1000.0 nM
[18] = target: Homeodomain-interacting protein kinase 2 (Homo sapiens) (UniProt Q9H2X6); conditions: Compound concentration 1000.0 nM
[19] = Glycine (strychnine-insensitive) CEREP ligand profiling; conditions: Compound concentration 10.0 uM
[20] = target: Tyrosine-protein kinase JAK1 (Homo sapiens) (UniProt P23458); conditions: Compound concentration 1000.0 nM
[21] = target: GABA-A receptor; anion channel (Homo sapiens) (UniProt P14867+P47870+P18507+P28472+P48169+Q99928+Q9UN88+P34903+O00591+O14764+Q8N1C3+P18505+P78334+P47869+P31644+Q16445); experiment: GABAA BZD (central) CEREP ligand profiling; format: protein-complex assay; conditions: Compound concentration 10.0 uM
[22] = target: Serine/threonine-protein kinase WNK1 (Homo sapiens) (UniProt Q9H4A3); conditions: Compound concentration 1000.0 nM
[23] = target: Tyrosine 3-monooxygenase (Homo sapiens) (UniProt P07101); experiment: TH CEREP ligand profiling; conditions: Compound concentration 10.0 uM
[24] = target: Mitogen-activated protein kinase 11 (Homo sapiens) (UniProt Q15759); conditions: Compound concentration 1000.0 nM
[25] = target: Insulin receptor-related protein (Homo sapiens) (UniProt P14616); conditions: Compound concentration 1000.0 nM
[26] = target: Mitogen-activated protein kinase kinase kinase 6 (Homo sapiens) (UniProt O95382); conditions: Compound concentration 1000.0 nM
[27] = target: MAP kinase-activated protein kinase 5 (Homo sapiens) (UniProt Q8IW41); conditions: Compound concentration 1000.0 nM
[28] = target: Cysteinyl leukotriene receptor 1 (Homo sapiens) (UniProt Q9Y271); experiment: LTD4 (h) (CysLT1) CEREP ligand profiling; conditions: Compound concentration 10.0 uM
[29] = target: Mitogen-activated protein kinase 1 (Homo sapiens) (UniProt P28482); conditions: Compound concentration 1000.0 nM
[30] = target: Mitogen-activated protein kinase kinase kinase 5 (Homo sapiens) (UniProt Q99683); conditions: Compound concentration 1000.0 nM
[31] = target: Adenosine receptor A3 (Homo sapiens) (UniProt P0DMS8); experiment: A3 (h) CEREP ligand profiling; conditions: Compound concentration 10.0 uM
[32] = target: Casein kinase I isoform gamma-1 (Homo sapiens) (UniProt Q9HCP0); conditions: Compound concentration 1000.0 nM
[33] = target: Tyrosine-protein kinase ZAP-70 (Homo sapiens) (UniProt P43403); conditions: Compound concentration 1000.0 nM
[34] = target: Mitogen-activated protein kinase kinase kinase 14 (Homo sapiens) (UniProt Q99558); conditions: Compound concentration 1000.0 nM
Histamine H4 receptor = Histamine H4 receptor (Homo sapiens, UniProt Q9H3N8); experiment: H4 (h) CEREP ligand profiling; conditions: Compound concentration 10.0 uM
[35] = target: Tyrosine-protein kinase JAK1 (Homo sapiens) (UniProt P23458); conditions: Compound concentration 1000.0 nM; remark: listed apart in the source
[36] = target: LIM domain kinase 2 (Homo sapiens) (UniProt P53671); conditions: Compound concentration 1000.0 nM
[37] = target: Prostaglandin E2 receptor EP2 subtype (Homo sapiens, UniProt P43116); experiment: Inhibition of binding to PTGER2
[38] = target: Histamine H1 receptor (Homo sapiens) (UniProt P35367); conditions: Compound concentration 10.0 uM
Sequence of Histamine H1 receptor (Homo sapiens) (P35367 whole entry): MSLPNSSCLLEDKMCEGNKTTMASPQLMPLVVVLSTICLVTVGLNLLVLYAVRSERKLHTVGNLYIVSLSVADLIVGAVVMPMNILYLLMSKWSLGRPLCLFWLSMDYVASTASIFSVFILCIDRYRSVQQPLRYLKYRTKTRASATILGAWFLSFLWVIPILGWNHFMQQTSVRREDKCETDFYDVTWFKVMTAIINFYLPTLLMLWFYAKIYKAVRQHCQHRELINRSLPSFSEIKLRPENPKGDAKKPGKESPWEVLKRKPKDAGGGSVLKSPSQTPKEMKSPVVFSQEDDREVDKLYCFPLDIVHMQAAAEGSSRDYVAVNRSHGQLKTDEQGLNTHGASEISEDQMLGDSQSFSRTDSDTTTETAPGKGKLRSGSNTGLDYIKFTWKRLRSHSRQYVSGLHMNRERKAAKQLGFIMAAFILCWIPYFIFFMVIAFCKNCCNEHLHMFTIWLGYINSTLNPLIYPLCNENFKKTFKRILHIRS

Sequence of Tyrosine-protein kinase JAK1 (Homo sapiens) (P23458 whole entry, the tested form may be a part): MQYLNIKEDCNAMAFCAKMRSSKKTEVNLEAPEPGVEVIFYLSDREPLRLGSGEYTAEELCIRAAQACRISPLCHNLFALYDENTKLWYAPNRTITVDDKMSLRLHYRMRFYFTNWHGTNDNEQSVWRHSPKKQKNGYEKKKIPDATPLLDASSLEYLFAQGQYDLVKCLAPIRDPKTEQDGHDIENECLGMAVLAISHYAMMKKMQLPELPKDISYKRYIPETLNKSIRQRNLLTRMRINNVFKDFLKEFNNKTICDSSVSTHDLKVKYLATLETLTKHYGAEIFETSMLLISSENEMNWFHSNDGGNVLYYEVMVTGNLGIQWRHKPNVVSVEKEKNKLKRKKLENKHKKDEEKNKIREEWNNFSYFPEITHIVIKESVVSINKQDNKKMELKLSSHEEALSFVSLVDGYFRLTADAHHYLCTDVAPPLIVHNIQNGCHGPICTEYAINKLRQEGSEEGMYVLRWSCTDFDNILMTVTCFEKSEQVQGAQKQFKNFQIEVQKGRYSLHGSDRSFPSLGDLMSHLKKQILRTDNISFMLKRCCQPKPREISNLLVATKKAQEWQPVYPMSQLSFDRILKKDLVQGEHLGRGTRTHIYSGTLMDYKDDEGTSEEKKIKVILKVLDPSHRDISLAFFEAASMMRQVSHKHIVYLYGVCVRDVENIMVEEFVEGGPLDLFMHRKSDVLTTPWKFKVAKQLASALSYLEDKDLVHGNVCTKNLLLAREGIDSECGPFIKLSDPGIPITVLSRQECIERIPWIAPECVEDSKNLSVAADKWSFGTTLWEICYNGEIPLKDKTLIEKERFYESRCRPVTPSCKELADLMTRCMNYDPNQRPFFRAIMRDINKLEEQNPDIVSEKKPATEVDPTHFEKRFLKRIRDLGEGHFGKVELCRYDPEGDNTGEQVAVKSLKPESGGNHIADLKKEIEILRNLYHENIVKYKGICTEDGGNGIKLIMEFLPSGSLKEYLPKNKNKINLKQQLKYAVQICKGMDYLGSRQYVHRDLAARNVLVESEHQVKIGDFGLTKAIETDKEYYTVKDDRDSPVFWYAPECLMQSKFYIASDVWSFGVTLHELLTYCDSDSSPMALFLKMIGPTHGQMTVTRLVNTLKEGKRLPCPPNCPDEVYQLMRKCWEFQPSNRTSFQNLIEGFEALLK
Sequence of Cysteinyl leukotriene receptor 1 (Homo sapiens) (Q9Y271 whole entry): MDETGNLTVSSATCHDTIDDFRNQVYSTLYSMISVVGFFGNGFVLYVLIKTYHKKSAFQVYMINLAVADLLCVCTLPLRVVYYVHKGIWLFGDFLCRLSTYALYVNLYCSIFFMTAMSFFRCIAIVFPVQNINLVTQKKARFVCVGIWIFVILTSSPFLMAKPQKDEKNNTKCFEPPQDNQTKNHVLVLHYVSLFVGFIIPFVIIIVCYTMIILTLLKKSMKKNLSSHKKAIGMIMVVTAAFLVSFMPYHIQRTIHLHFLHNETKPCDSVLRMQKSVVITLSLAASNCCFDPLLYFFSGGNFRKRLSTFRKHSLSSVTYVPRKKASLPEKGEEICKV
Sequence of Myotonin-protein kinase (Homo sapiens) (Q09013 whole entry): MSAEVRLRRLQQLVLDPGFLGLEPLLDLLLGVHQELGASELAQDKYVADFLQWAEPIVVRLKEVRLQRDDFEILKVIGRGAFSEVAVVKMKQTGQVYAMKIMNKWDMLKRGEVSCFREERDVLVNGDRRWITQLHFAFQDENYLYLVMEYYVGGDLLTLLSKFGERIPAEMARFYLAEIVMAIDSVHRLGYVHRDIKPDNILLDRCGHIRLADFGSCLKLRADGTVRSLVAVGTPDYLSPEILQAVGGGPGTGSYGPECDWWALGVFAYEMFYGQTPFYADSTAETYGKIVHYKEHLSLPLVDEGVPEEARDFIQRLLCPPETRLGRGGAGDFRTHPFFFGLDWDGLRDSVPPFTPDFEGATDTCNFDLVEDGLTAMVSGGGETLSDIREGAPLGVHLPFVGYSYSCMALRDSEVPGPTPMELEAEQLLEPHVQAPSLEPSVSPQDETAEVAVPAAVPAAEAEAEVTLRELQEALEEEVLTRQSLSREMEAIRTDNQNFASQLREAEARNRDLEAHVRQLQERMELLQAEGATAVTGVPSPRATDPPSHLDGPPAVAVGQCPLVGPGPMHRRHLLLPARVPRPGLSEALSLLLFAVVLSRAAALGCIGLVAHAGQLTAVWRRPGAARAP
Sequence of Prostaglandin E2 receptor EP2 subtype (P43116 whole entry): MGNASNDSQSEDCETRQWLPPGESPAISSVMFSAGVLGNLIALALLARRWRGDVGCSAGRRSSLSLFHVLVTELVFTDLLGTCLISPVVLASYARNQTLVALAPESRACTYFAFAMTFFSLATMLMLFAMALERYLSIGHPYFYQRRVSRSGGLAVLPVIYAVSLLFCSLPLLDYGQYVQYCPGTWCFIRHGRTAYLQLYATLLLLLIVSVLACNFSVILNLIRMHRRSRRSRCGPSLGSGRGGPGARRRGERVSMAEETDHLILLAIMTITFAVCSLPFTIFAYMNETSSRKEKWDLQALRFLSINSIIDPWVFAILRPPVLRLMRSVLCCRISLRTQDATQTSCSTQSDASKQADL
Sequence of MAP kinase-activated protein kinase 5 (Homo sapiens) (Q8IW41 whole entry): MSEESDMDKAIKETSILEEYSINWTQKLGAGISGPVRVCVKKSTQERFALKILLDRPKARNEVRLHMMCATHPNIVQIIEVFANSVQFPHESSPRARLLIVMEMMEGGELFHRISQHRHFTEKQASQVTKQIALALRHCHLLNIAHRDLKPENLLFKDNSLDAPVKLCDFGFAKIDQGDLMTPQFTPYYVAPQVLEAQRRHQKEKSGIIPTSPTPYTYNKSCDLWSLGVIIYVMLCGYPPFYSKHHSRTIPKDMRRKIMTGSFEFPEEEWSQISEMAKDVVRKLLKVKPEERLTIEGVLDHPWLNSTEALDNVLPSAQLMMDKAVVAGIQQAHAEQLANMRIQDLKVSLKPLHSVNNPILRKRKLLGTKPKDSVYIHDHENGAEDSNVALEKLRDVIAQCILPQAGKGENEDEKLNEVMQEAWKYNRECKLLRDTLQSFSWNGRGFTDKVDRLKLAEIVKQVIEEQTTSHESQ
Sequence of Beta-1 adrenergic receptor (Homo sapiens) (P08588 whole entry, looked up): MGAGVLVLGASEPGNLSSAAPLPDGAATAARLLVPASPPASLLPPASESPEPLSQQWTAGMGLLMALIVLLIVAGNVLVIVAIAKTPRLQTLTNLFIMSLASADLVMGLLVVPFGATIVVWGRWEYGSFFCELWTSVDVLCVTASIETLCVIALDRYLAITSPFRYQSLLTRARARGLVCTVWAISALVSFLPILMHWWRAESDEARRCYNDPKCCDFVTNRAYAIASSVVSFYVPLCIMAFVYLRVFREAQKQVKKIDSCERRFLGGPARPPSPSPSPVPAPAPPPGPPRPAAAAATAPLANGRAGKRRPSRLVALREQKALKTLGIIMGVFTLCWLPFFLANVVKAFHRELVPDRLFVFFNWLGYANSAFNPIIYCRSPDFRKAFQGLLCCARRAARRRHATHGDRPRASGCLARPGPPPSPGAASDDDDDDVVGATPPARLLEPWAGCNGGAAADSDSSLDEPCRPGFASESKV
Sequence of Adenosine receptor A3 (Homo sapiens) (P0DMS8 whole entry, canonical isoform): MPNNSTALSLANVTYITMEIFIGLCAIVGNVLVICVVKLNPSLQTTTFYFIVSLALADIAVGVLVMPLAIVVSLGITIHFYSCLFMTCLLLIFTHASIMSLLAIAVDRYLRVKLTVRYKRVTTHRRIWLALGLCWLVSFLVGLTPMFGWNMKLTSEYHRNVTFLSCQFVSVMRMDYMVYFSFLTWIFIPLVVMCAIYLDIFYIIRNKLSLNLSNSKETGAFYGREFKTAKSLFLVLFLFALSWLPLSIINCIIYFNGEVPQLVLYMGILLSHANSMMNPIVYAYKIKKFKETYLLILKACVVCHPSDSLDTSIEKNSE
Sequence of Dual specificity mitogen-activated protein kinase kinase 3 (Homo sapiens) (P46734 whole entry): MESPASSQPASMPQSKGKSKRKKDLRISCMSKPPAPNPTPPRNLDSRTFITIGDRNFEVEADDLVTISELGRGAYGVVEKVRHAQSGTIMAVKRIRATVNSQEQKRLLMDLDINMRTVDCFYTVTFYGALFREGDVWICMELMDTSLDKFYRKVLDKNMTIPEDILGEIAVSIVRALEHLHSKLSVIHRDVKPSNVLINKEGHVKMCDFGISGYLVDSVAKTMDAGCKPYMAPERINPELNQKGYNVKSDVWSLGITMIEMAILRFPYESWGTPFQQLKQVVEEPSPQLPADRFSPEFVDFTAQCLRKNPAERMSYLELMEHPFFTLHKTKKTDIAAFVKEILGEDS
Sequence of Kappa-type opioid receptor (Homo sapiens) (P41145 whole entry): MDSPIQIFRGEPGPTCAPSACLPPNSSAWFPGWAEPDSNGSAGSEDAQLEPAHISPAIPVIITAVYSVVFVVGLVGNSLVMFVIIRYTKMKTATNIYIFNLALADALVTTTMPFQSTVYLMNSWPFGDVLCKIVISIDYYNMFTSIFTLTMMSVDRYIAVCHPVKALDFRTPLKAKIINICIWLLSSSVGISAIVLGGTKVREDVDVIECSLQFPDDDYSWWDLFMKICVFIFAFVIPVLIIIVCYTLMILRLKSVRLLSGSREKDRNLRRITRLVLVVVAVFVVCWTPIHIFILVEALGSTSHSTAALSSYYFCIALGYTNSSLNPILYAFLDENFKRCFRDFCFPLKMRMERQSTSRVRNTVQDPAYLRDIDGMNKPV

COc1ccc2cc(OCC3(C(=O)O)CN(C(=O)c4ccc(F)cc4)C3)ccc2c1 [PF-04418948]
inactive: inhibition [1] 46% | residual activity [2] 99% | inhibition [3] 2% | residual activity [4] 94% | residual activity [5] 86% | inhibition [6] 9% | inhibition [7] 5% | residual activity [8] 88% | residual activity [9] 67% | residual activity [10] 89% | residual activity [11] 95% | residual activity [12] 94% | residual activity [13] 83% | inhibition [14] -6% | residual activity [15] 76% | residual activity [16] 76% | residual activity [17] 87% | residual activity [18] 78% | inhibition [19] 11% | residual activity [20] 93% | inhibition [21] 10% | residual activity [22] 84% | inhibition [23] -10% | residual activity [24] 78% | residual activity [25] 67% | residual activity [26] 95% | residual activity [27] 76% | inhibition [28] 2% | residual activity [29] 97% | residual activity [30] 98% | inhibition [31] -10% | residual activity [32] 94% | residual activity [33] 99% | residual activity [34] 82% | inhibition (Histamine H4 receptor) -4% | residual activity [35] 96% | residual activity [36] 90%

O=C(c1ccc(F)cc1)N1CC(COc2ccc(Br)cc2)(C(=O)O)C1 [PF-04475866]
inactive: inhibition [38] -4.38%
1300 nM (not active): IC50 [37]
